Test results published in patent publication US12077503B2, “Substituted cyclic amides and their use as herbicides” (FMC CORPORATION, priority 2015, dated 2024).

Legend:
Type in all cases: in vivo
[1] = test system: barnyardgrass (Echinochloa crus-galli); assay: Test G Pre-Emergence Protocol; conditions: evaluated after 13 days
Procedure: (§1) Seeds of corn (Zea mays), giant foxtail (Setaria faberi), barnyardgrass (Echinochloa crus-galli), ivy-leaved morning glory (Ipomoea hederacea), redroot pigweed (Amaranthus retroflexus) and velvetleaf (Abutilon theophrasti) were sown in standard soil in pots. After cultivation for one day under controlled conditions in a glasshouse (at 24/16° C., day/night; 14 hours light; 65% humidity), the plants were sprayed with an aqueous spray solution derived from the formulation of the technical active ingredient in acetone/water (50:50) solution containing 0.5% Tween 20 (polyoxyethylene sorbitan monolaurate, CAS RN 9005-64-5) to give a final dose of 15.625, 62.5 or 250 g/ha of test compound.
(§2) The test plants were then grown on under controlled conditions in a glasshouse (at 24/16° C., day/night; 14 hours light; 65% humidity) and watered twice daily. After 13 days the test was evaluated (100=total damage to plant; 0=no damage to plant). A dash (-) means no test result.

corn (Zea mays) [2] = assay: Test G Pre-Emergence Protocol; conditions: evaluated after 13 days
Procedure: as §1, §2

[3] = test system: giant foxtail (Setaria faberi); assay: Test G Pre-Emergence Protocol; conditions: evaluated after 13 days
Procedure: as §1, §2

[4] = test system: ivy-leaved morning glory (Ipomoea hederacea); assay: Test G Pre-Emergence Protocol; conditions: evaluated after 13 days; for Morningglory, Ivy-leaved damage rating (100=total damage to plant; 0=no damage to plant): 250 g ai/ha
Procedure: as §1, §2

[5] = test system: redroot pigweed (Amaranthus retroflexus); assay: Test G Pre-Emergence Protocol; conditions: evaluated after 13 days
Procedure: as §1, §2

[6] = test system: velvetleaf (Abutilon theophrasti); assay: Test G Pre-Emergence Protocol; conditions: evaluated after 13 days
Procedure: as §1, §2

[7] = test system: barnyardgrass (Echinochloa crus-galli); assay: Test G Post-Emergence Protocol
Procedure: as §1, with “8 days” for “one day”
as §2

corn (Zea mays) [8] = assay: Test G Post-Emergence Protocol
Procedure: as §1, with “8 days” for “one day”
as §2

[9] = test system: giant foxtail (Setaria faberi); assay: Test G Post-Emergence Protocol
Procedure: as §1, with “8 days” for “one day”
as §2

[10] = test system: ivy-leaved morning glory (Ipomoea hederacea); assay: Test G Post-Emergence Protocol
Procedure: as §1, with “8 days” for “one day”
as §2

[11] = test system: redroot pigweed (Amaranthus retroflexus); assay: Test G Post-Emergence Protocol
Procedure: as §1, with “8 days” for “one day”
as §2

[12] = test system: velvetleaf (Abutilon theophrasti); assay: Test G Post-Emergence Protocol
Procedure: as §1, with “8 days” for “one day”
as §2

[13] = 62.5 g ai/ha, 100=total damage to plant, 0=no damage to plant
[14] = 15.625 g ai/ha, evaluated after 13 days (100=total damage to plant; 0=no damage to plant)
[15] = 62.5 g ai/ha, evaluated after 13 days
[16] = 250 g ai/ha, evaluated after 13 days

COc1c(Cl)ccc([C@H]2CN(C)C(=O)[C@@H]2C(=O)Nc2cccc(F)c2F)c1F (racemic) [Compound 1476]
Barnyardgrass damage rating (100=total damage to plant; 0=no damage to plant) ([1]; 250 g ai/ha): 80
pest or weed control at 15.625 g/ha ([1]; Echinochloa crus-galli, pre-emergence, 312 h, 15.625 g ai/ha, read-out: Barnyard grass damage rating (100=total damage to plant; 0=no damage to plant)): 60%
pest or weed control at 62.5 g/ha ([1]; Echinochloa crus-galli, pre-emergence, 312 h, 62.5 g ai/ha, 100=total damage to plant, 0=no damage to plant, read-out: plant damage rating, Barnyardgrass): 70%
Corn damage rating (100=total damage to plant; 0=no damage to plant) (corn (Zea mays) [2]; 15.625 g ai/ha): 0
Corn damage rating (100=total damage to plant; 0=no damage to plant) (corn (Zea mays) [2]; 250 g ai/ha): 50
plant injury at 62.5 g/ha (corn (Zea mays) [2]; Zea mays, pre-emergence, 312 h, 62.5 g ai/ha, 100=total damage to plant, 0=no damage to plant, read-out: plant damage rating, Corn): 0%
Foxtail, Giant damage rating (100=total damage to plant; 0=no damage to plant) ([3]; 15.625 g ai/ha): 70
Foxtail, Giant damage rating (100=total damage to plant; 0=no damage to plant) ([3]; 250 g ai/ha): 80
pest or weed control at 62.5 g/ha ([3]; Setaria faberi, pre-emergence, 312 h, 62.5 g ai/ha, 100=total damage to plant, 0=no damage to plant, read-out: plant damage rating, Foxtail, Giant): 80%
Morningglory, Ivy-leaved damage rating (100=total damage to plant; 0=no damage to plant) [4]: 0
pest or weed control at 15.625 g/ha ([4]; Ipomoea, pre-emergence, 312 h, 15.625 g ai/ha, read-out: Morning-glory, Ivy-leaved damage rating (100=total damage to plant; 0=no damage to plant)): 0%
pest or weed control at 62.5 g/ha ([4]; Ipomoea, pre-emergence, 312 h, 62.5 g ai/ha, 100=total damage to plant, 0=no damage to plant, read-out: plant damage rating, Morningglory, Ivy-leaved): 0%
Pigweed, Redroot damage rating (100=total damage to plant; 0=no damage to plant) ([5]; 15.625 g ai/ha): 0
Pigweed, Redroot damage rating (100=total damage to plant; 0=no damage to plant) ([5]; 250 g ai/ha): 0
pest or weed control at 62.5 g/ha ([5]; Amaranthus retroflexus, pre-emergence, 312 h, 62.5 g ai/ha, 100=total damage to plant, 0=no damage to plant, read-out: plant damage rating, Pigweed, Redroot): 0%
Velvetleaf damage rating (100=total damage to plant; 0=no damage to plant) ([6]; 15.625 g ai/ha): 0
Velvetleaf damage rating (100=total damage to plant; 0=no damage to plant) ([6]; 250 g ai/ha): 0
pest or weed control at 62.5 g/ha ([6]; Abutilon theophrasti, pre-emergence, 312 h, 62.5 g ai/ha, 100=total damage to plant, 0=no damage to plant, read-out: plant damage rating, Velvetleaf): 0%
pest or weed control at 15.625 g/ha ([7]; Echinochloa crus-galli, post-emergence, 312 h, 15.625 g ai/ha, evaluated after 13 days (100=total damage to plant; 0=no damage to plant), read-out: Barnyardgrass damage rating): 40%
pest or weed control at 62.5 g/ha ([7]; Echinochloa crus-galli, post-emergence, 312 h, 62.5 g ai/ha, evaluated after 13 days, read-out: Barnyardgrass damage rating (100=total damage to plant; 0=no damage to plant)): 50%
pest or weed control at 250 g/ha ([7]; Echinochloa crus-galli, post-emergence, 312 h, 250 g ai/ha, evaluated after 13 days, read-out: damage to plant, Barnyardgrass (100=total damage to plant; 0=no damage to plant)): 60%
plant injury at 15.625 g/ha (corn (Zea mays) [8]; Zea mays, post-emergence, 312 h, 15.625 g ai/ha, evaluated after 13 days (100=total damage to plant; 0=no damage to plant), read-out: Corn damage rating): 10%
plant injury at 62.5 g/ha (corn (Zea mays) [8]; Zea mays, post-emergence, 312 h, 62.5 g ai/ha, evaluated after 13 days, read-out: Corn damage rating (100=total damage to plant; 0=no damage to plant)): 20%
plant injury at 250 g/ha (corn (Zea mays) [8]; Zea mays, post-emergence, 312 h, 250 g ai/ha, evaluated after 13 days, read-out: damage to plant, Corn (100=total damage to plant; 0=no damage to plant)): 70%
pest or weed control at 15.625 g/ha ([9]; Setaria faberi, post-emergence, 312 h, 15.625 g ai/ha, evaluated after 13 days (100=total damage to plant; 0=no damage to plant), read-out: Foxtail, Giant damage rating): 60%
pest or weed control at 62.5 g/ha ([9]; Setaria faberi, post-emergence, 312 h, 62.5 g ai/ha, evaluated after 13 days, read-out: Foxtail, Giant damage rating (100=total damage to plant; 0=no damage to plant)): 70%
pest or weed control at 250 g/ha ([9]; Setaria faberi, post-emergence, 312 h, 250 g ai/ha, evaluated after 13 days, read-out: damage to plant, Foxtail, Giant (100=total damage to plant; 0=no damage to plant)): 70%
pest or weed control at 15.625 g/ha ([10]; Ipomoea, post-emergence, 312 h, 15.625 g ai/ha, evaluated after 13 days (100=total damage to plant; 0=no damage to plant), read-out: Morningglory, Ivy-leaved damage rating): 20%
pest or weed control at 62.5 g/ha ([10]; Ipomoea, post-emergence, 312 h, 62.5 g ai/ha, evaluated after 13 days, read-out: Morningglory, Ivy-leaved damage rating (100=total damage to plant; 0=no damage to plant)): 20%
pest or weed control at 250 g/ha ([10]; Ipomoea, post-emergence, 312 h, 250 g ai/ha, evaluated after 13 days, read-out: damage to plant, Morningglory, Ivy-leaved (100=total damage to plant; 0=no damage to plant)): 60%
pest or weed control at 15.625 g/ha ([11]; Amaranthus retroflexus, post-emergence, 312 h, 15.625 g ai/ha, evaluated after 13 days (100=total damage to plant; 0=no damage to plant), read-out: Pigweed, Redroot damage rating): 10%
pest or weed control at 62.5 g/ha ([11]; Amaranthus retroflexus, post-emergence, 312 h, 62.5 g ai/ha, evaluated after 13 days, read-out: Pigweed, Redroot damage rating (100=total damage to plant; 0=no damage to plant)): 0%
pest or weed control at 250 g/ha ([11]; Amaranthus retroflexus, post-emergence, 312 h, 250 g ai/ha, evaluated after 13 days, read-out: damage to plant, Pigweed, Redroot (100=total damage to plant; 0=no damage to plant)): 10%
pest or weed control at 15.625 g/ha ([12]; Abutilon theophrasti, post-emergence, 312 h, 15.625 g ai/ha, evaluated after 13 days (100=total damage to plant; 0=no damage to plant), read-out: Velvetleaf damage rating): 10%
pest or weed control at 62.5 g/ha ([12]; Abutilon theophrasti, post-emergence, 312 h, 62.5 g ai/ha, evaluated after 13 days, read-out: Velvetleaf damage rating (100=total damage to plant; 0=no damage to plant)): 0%
pest or weed control at 250 g/ha ([12]; Abutilon theophrasti, post-emergence, 312 h, 250 g ai/ha, evaluated after 13 days, read-out: damage to plant, Velvetleaf (100=total damage to plant; 0=no damage to plant)): 10%

CN1CC(c2ccc(C(F)(F)F)cc2)C(C(=O)Nc2[nH]cnc2[N+](=O)[O-])C1=O (racemic) [Compound 1507]
Barnyardgrass damage rating (100=total damage to plant; 0=no damage to plant) ([1]; 15.625 g ai/ha): 0
plant damage rating, Barnyardgrass [1, 13]: 0
Barnyardgrass damage rating (100=total damage to plant; 0=no damage to plant) ([1]; 250 g ai/ha): 0
Corn damage rating (100=total damage to plant; 0=no damage to plant) (corn (Zea mays) [2]; 15.625 g ai/ha): 0
plant damage rating, Corn (corn (Zea mays) [2]; [13]): 0
Corn damage rating (100=total damage to plant; 0=no damage to plant) (corn (Zea mays) [2]; 250 g ai/ha): 0
Foxtail, Giant damage rating (100=total damage to plant; 0=no damage to plant) ([3]; 15.625 g ai/ha): 0
plant damage rating, Foxtail, Giant [3, 13]: 0
Foxtail, Giant damage rating (100=total damage to plant; 0=no damage to plant) ([3]; 250 g ai/ha): 0
Morning-glory, Ivy-leaved damage rating (100=total damage to plant; 0=no damage to plant) ([4]; 15.625 g ai/ha): 0
plant damage rating, Morningglory, Ivy-leaved [4, 13]: 0
Morningglory, Ivy-leaved damage rating (100=total damage to plant; 0=no damage to plant) [4]: 0
Pigweed, Redroot damage rating (100=total damage to plant; 0=no damage to plant) ([5]; 15.625 g ai/ha): 0
plant damage rating, Pigweed, Redroot [5, 13]: 0
Pigweed, Redroot damage rating (100=total damage to plant; 0=no damage to plant) ([5]; 250 g ai/ha): 0
Velvetleaf damage rating (100=total damage to plant; 0=no damage to plant) ([6]; 15.625 g ai/ha): 0
plant damage rating, Velvetleaf [6, 13]: 0
Velvetleaf damage rating (100=total damage to plant; 0=no damage to plant) ([6]; 250 g ai/ha): 0
Barnyardgrass damage rating [7, 14]: 0
Barnyardgrass damage rating (100=total damage to plant; 0=no damage to plant) [7, 15]: 0
damage to plant, Barnyardgrass (100=total damage to plant; 0=no damage to plant) [7, 16]: 0
Corn damage rating (corn (Zea mays) [8]; [14]): 0
Corn damage rating (100=total damage to plant; 0=no damage to plant) (corn (Zea mays) [8]; [15]): 0
damage to plant, Corn (100=total damage to plant; 0=no damage to plant) (corn (Zea mays) [8]; [16]): 0
Foxtail, Giant damage rating [9, 14]: 0
Foxtail, Giant damage rating (100=total damage to plant; 0=no damage to plant) [9, 15]: 0
damage to plant, Foxtail, Giant (100=total damage to plant; 0=no damage to plant) [9, 16]: 0
Morningglory, Ivy-leaved damage rating [10, 14]: 0
Morningglory, Ivy-leaved damage rating (100=total damage to plant; 0=no damage to plant) [10, 15]: 0
damage to plant, Morningglory, Ivy-leaved (100=total damage to plant; 0=no damage to plant) [10, 16]: 0
Pigweed, Redroot damage rating [11, 14]: 0
Pigweed, Redroot damage rating (100=total damage to plant; 0=no damage to plant) [11, 15]: 0
damage to plant, Pigweed, Redroot (100=total damage to plant; 0=no damage to plant) [11, 16]: 0
Velvetleaf damage rating [12, 14]: 0
Velvetleaf damage rating (100=total damage to plant; 0=no damage to plant) [12, 15]: 0
damage to plant, Velvetleaf (100=total damage to plant; 0=no damage to plant) [12, 16]: 0
